Experimental data taken from patent US9273058B2 (BRISTOL-MYERS SQUIBB COMPANY, priority 2013, dated 2016).
Read-outs that look alike come from different tables or passages of the source.

Assays:
CK1ε = CK1ε (Homo sapiens, UniProt P49674); test: CK1ε kinase assay (Caliper LabChip electrophoretic separation of fluoresceinated peptide substrate and product); format: biochemical; settings: 200 pM CK1ε, 50 μM ATP, 1.5 μM peptide, 22 hours at room temperature
Method in brief: (§1)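 Reactions ran 22 hours at room temperature and were stopped with EDTA. Phosphorylated product and unphosphorylated substrate were then separated electrophoretically. Compounds were tested at eleven concentrations, and IC50 values came from non-linear regression.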

CK1δ = CK1δ (Homo sapiens, UniProt P48730); test: CK1δ kinase assay (Caliper LabChip electrophoretic separation of fluoresceinated peptide substrate and product); format: biochemical; settings: 200 pM CK1δ, 50 μM ATP, 1.5 μM peptide, 22 hours at room temperature
Sequence of CK1δ (P48730 whole entry): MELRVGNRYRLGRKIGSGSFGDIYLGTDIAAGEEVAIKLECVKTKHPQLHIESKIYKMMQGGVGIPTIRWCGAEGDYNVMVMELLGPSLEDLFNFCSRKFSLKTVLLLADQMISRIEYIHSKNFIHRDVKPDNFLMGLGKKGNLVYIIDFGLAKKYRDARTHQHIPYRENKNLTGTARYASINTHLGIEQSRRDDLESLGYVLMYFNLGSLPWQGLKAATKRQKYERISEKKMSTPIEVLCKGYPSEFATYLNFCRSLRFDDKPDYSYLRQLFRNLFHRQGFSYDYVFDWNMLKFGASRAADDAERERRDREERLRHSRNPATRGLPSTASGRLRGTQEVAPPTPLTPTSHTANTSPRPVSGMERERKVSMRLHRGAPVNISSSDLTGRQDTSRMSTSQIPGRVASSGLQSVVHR
Method in brief: as §1

Sequence of CK1ε (P49674 whole entry): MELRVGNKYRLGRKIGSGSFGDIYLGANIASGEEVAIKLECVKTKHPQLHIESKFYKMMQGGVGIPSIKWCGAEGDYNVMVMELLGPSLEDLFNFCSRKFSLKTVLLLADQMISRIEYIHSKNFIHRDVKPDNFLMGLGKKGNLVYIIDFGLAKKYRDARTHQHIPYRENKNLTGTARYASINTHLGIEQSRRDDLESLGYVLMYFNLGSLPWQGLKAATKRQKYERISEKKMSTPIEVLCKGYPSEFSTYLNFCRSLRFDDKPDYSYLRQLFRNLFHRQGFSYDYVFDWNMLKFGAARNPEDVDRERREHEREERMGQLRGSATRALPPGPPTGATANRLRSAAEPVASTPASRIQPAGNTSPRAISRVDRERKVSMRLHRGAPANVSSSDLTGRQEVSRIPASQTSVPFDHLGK

Which results are given for N#Cc1ccc([C@H]2C[C@@H](NC(=O)N3CCn4nc(-c5cccc(Cl)c5)c(C(N)=O)c4C3)C2)cc1 [Compound 284, 2-(3-Chlorophenyl)-N^5-((1s,3s)-3-(4-cyanophenyl)cyclobutyl)-6,7-dihydropyrazolo[1,5-a] pyrazine-3,5(4H)-dicarboxamide]?
IC50 (CK1ε; read-out: CK1ε IC50 range): 0.01 to 10 nM; IC50 (CK1δ; read-out: CK1δ IC50 range): 0.01 to 10 nM

What does the source list for CC(C)(C)NC(=O)N1CCn2nc(-c3cncc4ccccc34)c(C(N)=O)c2C1 [Compound 133, N^5-(tert-Butyl)-2-(isoquinolin-4-yl)-6,7-dihydropyrazolo[1,5-a] pyrazine-3,5(4H)-dicarboxamide]?
IC50 (CK1ε; read-out: CK1ε IC50 range): 100 to 2000 nM; IC50 (CK1δ; read-out: CK1δ IC50 range): 100 to 2000 nM

With CC(C)(C)NC(=O)N1Cc2c(C(N)=O)c(-c3ccc(F)c(Cl)c3)nn2C(C(=O)NC2CC2)C1 (stereo not drawn) [Compound A23, N^5-(tert-Butyl)-2-(3-chloro-4-fluorophenyl)-N^7-cyclopropyl-6,7-dihydropyrazolo[1,5-a]pyrazine-3,5,7(4H)-tricarboxamide] as the compound, how does the IC50 (CK1ε; read-out: CK1ε IC50 range) read?
The IC50 was 10 to 100 nM.

What about the IC50 (CK1δ; read-out: CK1δ IC50 range) of the same compound?
The IC50 was 100 to 2000 nM.

Which results are given for CC(C)(C)NC(=O)N1CCn2nc(-c3ccc(F)cc3)c(C(N)=O)c2C1 [Compound 1]?
IC50 (CK1ε; read-out: CK1ε): 90.3 nM; IC50 (CK1ε; read-out: CK1ε IC50 range): 10 to 100 nM; IC50 (CK1δ; read-out: CK1δ): 27.8 nM; IC50 (CK1δ; read-out: CK1δ IC50 range): 10 to 100 nM

What does the source list for CC(C)(C)NC(=O)N1CCn2nc(-c3ccc(F)c(F)c3)c(C(N)=O)c2C1 [Compound 106, N^5-(tert-Butyl)-2-(3,4-difluorophenyl)-6,7-dihydropyrazolo[1,5-a] pyrazine-3,5(4H)-dicarboxamide]?
IC50 (CK1ε; read-out: CK1ε): 29.3 nM; IC50 (CK1ε; read-out: CK1ε IC50 range): 10 to 100 nM; IC50 (CK1δ; read-out: CK1δ): 8.7 nM; IC50 (CK1δ; read-out: CK1δ IC50 range): 0.01 to 10 nM

Which IC50 (CK1ε; read-out: CK1ε IC50 range) does the source give for NC(=O)c1c(-c2ccc(Cl)c(Cl)c2)nn2c1CN(C(=O)NC1(C(F)F)CC(F)(F)C1)CC2 [Compound 305, 2-(3,4-Dichlorophenyl)-N^5-(1-(difluoromethyl)-3,3-difluorocyclobutyl)-6,7-dihydropyrazolo[1,5-a] pyrazine-3,5(4H)-dicarboxamide] here?
Its IC50 is 0.01 to 10 nM.

And the IC50 (CK1δ; read-out: CK1δ IC50 range)?
Its IC50 is 0.01 to 10 nM.

Which results are given for CC(C)(C)NC(=O)N1Cc2c(C(N)=O)c(-c3ccc(F)c(Cl)c3)nn2CC1C(F)(F)F (single isomer, unassigned) [Compound 346, N^5-(tert-Butyl)-2-(3-chloro-4-fluorophenyl)-6-(trifluoromethyl)-6,7-dihydropyrazolo[1,5-a]pyrazine-3,5(4H)-dicarboxamide]?
IC50 (CK1ε; read-out: CK1ε IC50 range): 100 to 2000 nM; IC50 (CK1δ; read-out: CK1δ IC50 range): 100 to 2000 nM

How did the IC50 (CK1ε; read-out: CK1ε IC50 range) turn out when CC(C)(C)NC(=O)N1CCn2nc(-c3cccc(NS(C)(=O)=O)c3)c(C(N)=O)c2C1 [Compound 118, N^5-(tert-Butyl)-2-(3-(methylsulfonamido)phenyl)-6,7-dihydropyrazolol[1,5-a] pyrazine-3,5(4H)-dicarboxamide] was run?
The IC50 was 100 to 2000 nM.

And the IC50 (CK1δ; read-out: CK1δ IC50 range)?
The IC50 was 100 to 2000 nM.

For CC1CC(NC(=O)N2CCn3nc(-c4cccc(Cl)c4)c(C(N)=O)c3C2)C1 (single isomer, unassigned) [Compound 251, 2-(3-Chlorophenyl)-N^5-(3-methylcyclobutyl)-6,7-dihydropyrazolo[1,5-a]pyrazine-3,5(4H)-dicarboxamide], which IC50 (CK1ε; read-out: CK1ε IC50 range) is on record?
Its IC50 is 0.01 to 10 nM.

And the IC50 (CK1δ; read-out: CK1δ IC50 range)?
The IC50 was 0.01 to 10 nM.

For C[C@H]1CN(C(=O)NC2CC(F)(F)C2)Cc2c(C(N)=O)c(-c3ccc(F)c(Cl)c3)nn21 [Compound A115, (S)-2-(3-Chloro-4-fluorophenyl)-N^5-(3,3-difluorocyclobutyl)-7-methyl-6,7-dihydropyrazolo[1,5-a]pyrazine-3,5(4H)-dicarboxamide], which IC50 (CK1ε; read-out: CK1ε IC50 range) is on record?
Its IC50 is 0.01 to 10 nM.

What about the IC50 (CK1δ; read-out: CK1δ IC50 range) of the same compound?
Its IC50 is 0.01 to 10 nM.

With CC1CC(NC(=O)N2CCn3nc(-c4ccc(Cl)c(Cl)c4)c(C(N)=O)c3C2)C1 (single isomer, unassigned) [Compound 248, 2-(3,4-Dichlorophenyl)-N^5-(3-methylcyclobutyl)-6,7-dihydropyrazolo[1,5-a]pyrazine-3,5(4H)-dicarboxamide] as the compound, how does the IC50 (CK1ε; read-out: CK1ε) read?
Its IC50 is 0.4 nM.

What about the IC50 (CK1ε; read-out: CK1ε IC50 range) of the same compound?
The IC50 was 0.01 to 10 nM.

What about the IC50 (CK1δ; read-out: CK1δ) of the same compound?
The IC50 was 1.5 nM.

And the IC50 (CK1δ; read-out: CK1δ IC50 range)?
The IC50 was 0.01 to 10 nM.

Which results are given for CC(C)(NC(=O)N1CCn2nc(-c3cccc(Cl)c3)c(C(N)=O)c2C1)C1CC(F)(F)C1 [Compound 227, 2-(3-Chlorophenyl)-N^5-(2-(3,3-difluorocyclobutyl)propan-2-yl)-6,7-dihydropyrazolo[1,5-a] pyrazine-3,5(4H)-dicarboxamide]?
IC50 (CK1ε; read-out: CK1ε IC50 range): 0.01 to 10 nM; IC50 (CK1δ; read-out: CK1δ IC50 range): 0.01 to 10 nM

How did the IC50 (CK1ε; read-out: CK1ε IC50 range) turn out when CC(CF)(CF)NC(=O)N1CCn2nc(-c3ccc(F)c(Cl)c3)c(C(N)=O)c2C1 [Compound 209, 2-(3-Chloro-4-fluorophenyl)-N^5-(1,3-difluoro-2-methylpropan-2-yl)-6,7-dihydropyrazolo[1,5-a]pyrazine-3,5(4H)-dicarboxamide] was run?
Its IC50 is 0.01 to 10 nM.

What about the IC50 (CK1δ; read-out: CK1δ IC50 range) of the same compound?
Its IC50 is 0.01 to 10 nM.

Which IC50 (CK1ε; read-out: CK1ε IC50 range) does the source give for CC(C)(C)NC(=O)N1Cc2c(C(N)=O)c(-c3cccc(F)c3)nn2C(CF)C1 (single isomer, unassigned) [Compound A107, N^5-(tert-Butyl)-7-(fluoromethyl)-2-(3-fluorophenyl)-6,7-dihydropyrazolo[1,5-a]pyrazine-3,5(4H)-dicarboxamide] here?
Its IC50 is 0.01 to 10 nM.

And the IC50 (CK1δ; read-out: CK1δ IC50 range)?
The IC50 was 0.01 to 10 nM.

Which results are given for CC(C)(C)NC(=O)N1Cc2c(C(N)=O)c(-c3ccc(F)c(Cl)c3)nn2C(C(C)(C)O)C1 (stereo not drawn) [Compound A17, N^5-(tert-Butyl)-2-(3-chloro-4-fluorophenyl)-7-(2-hydroxypropan-2-yl)-6,7-dihydropyrazolo[1,5-a]pyrazine-3,5(4H)-dicarboxamide]?
IC50 (CK1ε; read-out: CK1ε IC50 range): 10 to 100 nM; IC50 (CK1δ; read-out: CK1δ IC50 range): 10 to 100 nM

How did the IC50 (CK1ε; read-out: CK1ε IC50 range) turn out when NC(=O)c1c(-c2cccc(Cl)c2)nn2c1CN(C(=O)N[C@H]1C[C@@H](F)C1)CC2 [Compound 176, 2-(3-Chlorophenyl)-N^5-((1s,3s)-3-fluorocyclobutyl)-6,7-dihydropyrazolo[1,5-a] pyrazine-3,5(4H)-dicarboxamide] was run?
The IC50 was 0.01 to 10 nM.

What about the IC50 (CK1δ; read-out: CK1δ IC50 range) of the same compound?
The IC50 was 0.01 to 10 nM.

How did the IC50 (CK1ε; read-out: CK1ε IC50 range) turn out when NC(=O)c1c(-c2cccc(Cl)c2)nn2c1CN(C(=O)N[C@@H]1C[C@@H]3[C@H](C1)C3(F)F)CC2 [Compound 183, 2-(3-Chlorophenyl)-N^5-((1R,3s,5S)-6,6-difluorobicyclo[3.1.0]hexan-3-yl)-6,7-dihydropyrazolo[1,5-a]pyrazine-3,5(4H)-dicarboxamide] was run?
The IC50 was 0.01 to 10 nM.

And the IC50 (CK1δ; read-out: CK1δ IC50 range)?
The IC50 was 0.01 to 10 nM.

How did the IC50 (CK1ε; read-out: CK1ε IC50 range) turn out when CC1(NC(=O)N2CCn3nc(-c4cc(Cl)cc(Cl)c4)c(C(N)=O)c3C2)CC(F)(F)C1 [Compound 298, 2-(3,5-Dichlorophenyl)-N^5-(3,3-difluoro-1-methylcyclobutyl)-6,7-dihydropyrazolo[1,5-a] pyrazine-3,5(4H)-dicarboxamide] was run?
Its IC50 is 0.01 to 10 nM.

What about the IC50 (CK1δ; read-out: CK1δ IC50 range) of the same compound?
Its IC50 is 0.01 to 10 nM.

Which results are given for CC(C)(C)NC(=O)N1CCn2nc(-c3ccc(F)nc3F)c(C(N)=O)c2C1 [Compound 125, N^5-(tert-Butyl)-2-(2,6-difluoropyridin-3-yl)-6,7-dihydropyrazolo[1,5-a] pyrazine-3,5(4H)-dicarboxamide]?
IC50 (CK1ε; read-out: CK1ε IC50 range): 100 to 2000 nM; IC50 (CK1δ; read-out: CK1δ IC50 range): 100 to 2000 nM

NC(=O)c1c(-c2cccc(Cl)c2)nn2c1CN(C(=O)N[C@H]1C[C@@H](OC(F)(F)F)C1)CC2 [Compound 262, 2-(3-Chlorophenyl)-N^5-((1r,3r)-3-(trifluoromethoxy)cyclobutyl)-6,7-dihydropyrazolo[1,5-a] pyrazine-3,5(4H)-dicarboxamide] was tested. Which IC50 (CK1ε; read-out: CK1ε IC50 range) did it give?
Its IC50 is 0.01 to 10 nM.

What about the IC50 (CK1δ; read-out: CK1δ IC50 range) of the same compound?
The IC50 was 0.01 to 10 nM.

How did the IC50 (CK1ε; read-out: CK1ε IC50 range) turn out when COC12CCC(NC(=O)N3CCn4nc(-c5cccc(Cl)c5)c(C(N)=O)c4C3)(CC1)CC2 [Compound A80, 2-(3-Chlorophenyl)-N^5-(4-methoxybicyclo[2.2.2]octan-1-yl)-6,7-dihydropyrazolo[1,5-a]pyrazine-3,5(4H)-dicarboxamide] was run?
The IC50 was 0.01 to 10 nM.

What about the IC50 (CK1δ; read-out: CK1δ IC50 range) of the same compound?
The IC50 was 0.01 to 10 nM.
